Read-outs that look alike come from different tables or passages of the source. Marks after values point to notes of the source that are not given here.
Experiments:
RAW 264.7 cells = assay: MTT assay, viability of RAW 264.7 cells; format: cell-based; details: compound diluted to 30 mol/L (so in the source), 12 h
Protocol: (§1) The effect of the compound to be tested on viability of RAW 264.7 cells at a concentration of […] was assessed through MTT assay (Methylthiazolyldiphenyl-tetrazolium bromide assay), and the inhibition on NO release in the inflammatory response of LPS-induced RAW 264.7 cells at 30 µM was determined through Griess method. Specific methods were described as follows.
An MTT solution (5 mg/mL) was prepared with a PBS buffer, filter-sterilized through a 0.22 μm filter membrane, and stored protected from light at low temperature. Each compound was dissolved in DMSO to prepare a 50 mmol/L stock solution, and stored from light at low (frozen) temperature. The stock solution was diluted to 30 mol/L with DMEM (Dulbecco's modified Eagle's medium) containing 10% FBS (fetal bovine serum). RAW264.7 cells beyond third passage were added to a culture medium and gently pipetted to detach, forming a cell suspension. 10 μL of the cell suspension was applied onto a hemocytometer slide for counting, and cells were seeded into 96-well plates at a density of 6×10^3 cells per well with 100 μL of the cell suspension per well. After incubated at 37° C. with 5% CO2 for 24 h, supernatant was removed. A zero-adjustment group (CO group) received 100 μL of medium per well, the blank group (CK group) received 100 μL of DMSO (1/1000 dilution) per well, and the experimental groups received 100 μL of the test samples per well. After 12 h, supernatant was removed, and […] of MTT solution was added into each well at 120 μL per well. After incubated in COz at a constant temperature for 4 h, supernatant was removed, and DMSO was added into each well by 150 μL per well. The mixture was shaken at 50 r/min for 10 min and subjected to an absorbance test at 492 nm. Relative cell viability (x) was calculated through a formula as follows: relative cell viability (%)=(ODTest−ODCO)/(ODCK−ODCO)×100%.

[1] = tested on: LPS-induced RAW 264.7 cells; assay: Griess assay, inhibition of NO release in LPS-induced RAW 264.7 cells; format: cell-based; details: Griess method, compound at 30 M (so in the source), 22 h
Protocol: as §1
RAW264.7 cells beyond third passage were added to a culture medium and gently pipetted to detach, forming a cell suspension. 10 μL of the cell suspension was applied onto a hemocytometer slide for counting, and cells were seeded into a 96-well plate at a density of 3×10^4 cells per well with 100 μL of the cell suspension per well. After incubated at 37° C. with […] for 24 h, supernatant was removed. The blank group received 100 μL of DMSO (1/1000 dilution) per well, a LPS (lipopolysaccharide) group received 100 μL of DMSO (1/1000 dilution) per well, and the experimental groups received 100 μL of the test samples per well. The LPS group received 1 μg/ml of LPS by […] per well, and the experimental groups received […] of LPS by 3 μg per well. After 22 h, 50 μL of supernatant was transferred into another 96-well plate, added with Griess Reagent I in a NO assay kit by 50 μL per well, then added with Griess Reagent II by 50 μL per well, and subjected to an absorbance test at 562 nm. Nitric oxide (NO) concentration was calculated based on a standard curve, which was specifically as follows: NO inhibition rate (%)=(ODLPS−ODTest)/(ODLPS−ODBlank)×100).

Kunming mice [2] = assay: Analgesic activity by acetic acid-induced writhing method (writhing inhibition rate, ED50); format: in vivo; details: Mus musculus, sc; for ED50: Probit regression, read-out: ED50; for inhibition in vivo at 0.05 mg/kg / inhibition in vivo at 0.5 mg/kg: read-out: Analgesia rate (%) ± SEM
Summary of the method: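 Kunming mice (22±2 g, 1:1 sex, 12 h fasted, 10/group) got compound s.c. (dissolved 1:1 molar with 0.1 mol/L HCl, diluted in saline); 0.7% acetic acid i.p. 15 min later, writhes counted over 15 min. Inhibition rate vs saline blank; ED50 by Probit regression over ≥5 doses.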

[3] = Acute toxicity / median lethal dose (LD50) determination, subcutaneous injection; format: in vivo, mice; set-up: key to Acute toxicity: if death occurred, (+) represented as positive; if no death occurred, (−) represented as negative; details: both sexes, Kunming, mouse, in vivo, sc; mice, subcutaneous, survival within 24 h, Probit regression; >X = no death or toxic symptoms at X mg/kg
Summary of the method: (§2)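 Kunming mice (22±2 g, 1:1 male:female, fasted 12 h), 10 per group, given compound subcutaneously at 0.1 mL/10 g in saline after 1:1 molar dissolution in 0.1 mol/L HCl. At least 5 proportional dose groups set from a 20 mg/kg pilot; 24 h survival, LD50 by Probit regression.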

Kunming mice [4] = assay: as above; format: in vivo; set-up: key to Acute toxicity: if death occurred, (+) represented as positive; if no death occurred, (−) represented as negative; details: mice administered 20 mg/kg subcutaneously, presence of death within 24 h
Summary of the method: as §2

Kunming mice [5] = assay: Calculation of therapeutic index (TI = LD50/ED50); format: in vivo
Protocol: (3) Calculation of Therapeutic Index (TI)
The therapeutic index of each compound was calculated based on the median effective dose and the median lethal dose, which were specifically as follows: therapeutic index (TI)=median lethal dose (LD50)/median effective dose (ED50).

[6] = acetic acid-induced writhing, mice, subcutaneous
[7] = dosing concentration 0.05 mg/kg, subcutaneous, acetic acid-induced writhing, mice
[8] = dosing concentration 0.5 mg/kg, subcutaneous, acetic acid-induced writhing, mice

| SMILES | RAW cell viability (RAW 264.7 cells) | Inflammatory NO inhibition rate [1] [%] | ED50 (Kunming mice [2]; [6]) [mg/kg] | inhibition in vivo at 0.05 mg/kg (Kunming mice [2]; [7]) [%] | LD50 [3] [mg/kg] | Acute toxicity (Kunming mice [4]) | TI (Kunming mice [5]) | inhibition in vivo at 0.5 mg/kg (Kunming mice [2]; [8]) [%] | inhibition in vivo at 0.05 mg/kg (Kunming mice [2]) [%] | inhibition in vivo at 0.5 mg/kg (Kunming mice [2]) [%] |
| --- | --- | --- | --- | --- | --- | --- | --- | --- | --- | --- |
| Cc1ccc(-c2cc(C(F)(F)F)nn2-c2ccc(S(N)(=O)=O)cc2)cc1 [Celecoxib, reference compound] | 93.09 ± 2.14 ns % | 74 ± 2.2 |  |  |  |  |  |  |  |  |
| CCO[C@]12C[C@H](OC)[C@@]3(OC(=O)C4CCCCC4)CC(C1[C@H]3OC(=O)C1CCCCC1)[C@]13C4[C@@H](OC)C2[C@H]1N(CC)C[C@]4(COC)CC[C@@H]3OC (some centres unmarked) [Compound 5] | 28.05 ± 4.84 % |  | 0.083 | 49.7 ± 1.1 | > 100 | − | >1204.8 |  |  |  |
| CCN1C[C@]2(COC)CC[C@H](OC)[C@@]34C5C[C@]6(OC(=O)c7ccco7)[C@@H](OC)C[C@@](OC(C)=O)(C5[C@H]6OC(=O)c5ccc(OC)cc5)C([C@H](OC)C23)[C@@H]14 (some centres unmarked) [Compound 12] | 119.75 ± 1.11***^ % | 17 ± 5.14 |  | 45.7 ± 0.6 |  | − |  | 54.2 ± 1.4 |  |  |
| CCO[C@]12C[C@H](OC)[C@@]3(OC(=O)c4ccc(OC)cc4)CC(C1[C@H]3OC(=O)c1ccc(OC)cc1)[C@]13C4[C@@H](OC)C2[C@H]1N(CC)C[C@]4(COC)CC[C@@H]3OC (some centres unmarked) [Compound 13] | 8.29 ± 2.8 % |  | 0.082 | 49.4 ± 1.3 | > 100 | − | >1219.5 |  |  |  |
| CCO[C@]12C[C@H](OC)[C@@]3(OC(=O)C4CCCCC4)CC(C1[C@H]3OC(=O)c1ccc(OC)cc1)[C@]13C4[C@@H](OC)C2[C@H]1N(CC)C[C@]4(COC)CC[C@@H]3OC (some centres unmarked) [Compound 14] | 13.36 ± 0.9***^ % |  |  | 40.3 ± 1.7 |  | − |  | 44.4 ± 2.1 |  |  |
| CCO[C@]12C[C@H](OC)[C@@]3(OC(=O)c4cccs4)CC(C1[C@H]3OC(=O)c1cccs1)[C@]13C4[C@@H](OC)C2[C@H]1N(CC)C[C@]4(COC)CC[C@@H]3OC (some centres unmarked) [Compound 17] | 87.25 ± 2.09 ns % | 47 ± 3.49 |  | 44.44 ± 0.4 |  | − |  | 54.7 ± 1.5 |  |  |
| CCO[C@]12C[C@H](OC)[C@@]3(OC(=O)C4CCOCC4)CC(C1[C@H]3OC(=O)C1CCOCC1)[C@]13C4[C@@H](OC)C2[C@H]1N(CC)C[C@]4(COC)CC[C@@H]3OC (some centres unmarked) [Compound 23] | 81.35 ± 3.48 % |  | 0.073 | 57.9 ± 0.6 | > 100 | − | >1369.9 |  |  |  |
| CCO[C@]12C[C@H](OC)[C@@]3(OC(=O)C4CCOCC4)CC(C1[C@H]3OC(=O)c1ccc(OC)cc1)[C@]13C4[C@@H](OC)C2[C@H]1N(CC)C[C@]4(COC)CC[C@@H]3OC (some centres unmarked) [Compound 24] | 94.97 ± 7.74 ns % | 8 ± 2.69 |  | 46.1 ± 1.7 |  | − |  | 50.9 ± 1.7 |  |  |
| CCO[C@]12C[C@H](OC)[C@@]3(OC(=O)c4cccnc4)CC(C1[C@H]3OC(=O)c1ccc(OC)cc1)[C@]13C4[C@@H](OC)C2[C@H]1N(CC)C[C@]4(COC)CC[C@@H]3OC (some centres unmarked) [Compound 28] | 83.03 ± 4.69**^ % |  |  | 36.1 ± 2.1 |  | − |  |  |  |  |
| CCO[C@]12C[C@H](OC)[C@@]3(OC(=O)c4ccc([N+](=O)[O-])cc4)CC(C1[C@H]3OC(=O)c1ccc([N+](=O)[O-])cc1)[C@]13C4[C@@H](OC)C2[C@H]1N(CC)C[C@]4(COC)CC[C@@H]3OC (some centres unmarked) [Compound 38] | 99.37 ± 10.29 ns % | 23 ± 5.6 |  |  |  | − |  |  | 42.4 ± 1.5 | 56.2 ± 1 |
| CCO[C@]12C[C@H](OC)[C@@]3(OC(=O)c4ccc([N+](=O)[O-])cc4)CC(C1[C@H]3OC(=O)c1ccc(OC)cc1)[C@]13C4[C@@H](OC)C2[C@H]1N(CC)C[C@]4(COC)CC[C@@H]3OC (some centres unmarked) [Compound 39] | 6.97 ± 0.93 % |  | 0.195 | 51.1 ± 1.4 | > 100 | − | >512.8 |  |  |  |
| CCO[C@]12C[C@H](OC)[C@@]3(OC(=O)c4ccc(F)cc4)CC(C1[C@H]3OC(=O)c1ccc(F)cc1)[C@]13C4[C@@H](OC)C2[C@H]1N(CC)C[C@]4(COC)CC[C@@H]3OC (some centres unmarked) [Compound 59] | 7.00 ± 1.38 % |  |  | 43.5 ± 2.5 |  | − |  | 57.6 ± 0.9 |  |  |
| CCCC(=O)O[C@]12CC3C([C@H]1OC(=O)c1ccc(OC)cc1)[C@](OC(C)=O)(C[C@@H]2OC)C1[C@H](OC)C2[C@@]4(COC)CC[C@H](OC)[C@@]32[C@@H]1N(CC)C4 (some centres unmarked) [Compound 79] | 101.29 ± 2.63 ns % | 42 ± 4.69 |  | 37.9 ± 2 |  | − |  |  |  |  |
| CCO[C@]12C[C@H](OC)[C@@]3(OC(=O)CC(C)(C)C)CC(C1[C@H]3OC(=O)c1ccc(OC)cc1)[C@]13C4[C@@H](OC)C2[C@H]1N(CC)C[C@]4(COC)CC[C@@H]3OC (some centres unmarked) [Compound 90] | 101.74 ± 7.63 ns % | 12 ± 4.85 |  | 41.9 ± 1.9 |  | − |  | 59 ± 0.8 |  |  |
| CCO[C@]12C[C@H](OC)[C@@]3(OC(=O)c4cc([N+](=O)[O-])cc([N+](=O)[O-])c4)CC(C1[C@H]3OC(=O)c1cc([N+](=O)[O-])cc([N+](=O)[O-])c1)[C@]13C4[C@@H](OC)C2[C@H]1N(CC)C[C@]4(COC)CC[C@@H]3OC (some centres unmarked) [Compound 96] |  |  |  |  |  | − |  |  | 30.1 ± 1.3 |  |
